The conditions of data set [1]: 11-membered ring.
The target of a further data set is MCL-1 (Homo sapiens, UniProt Q07820). Nature of the data set: Protein-protein interaction assay MCL-1/Noxa BH3 peptide (MCL-1 assay), TR-FRET. It counts as binding. The note with it: MBP-MCL-1 / Noxa BH3-derived peptide, median. The method, boiled down:
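MBP-MCL-1 (1 nM final) was preincubated 10 min at 22 °C with compounds (11 concentrations, 0.1 nM–20 μM, duplicates) in Tris pH 7 buffer with NaCl, KF, Tween-20, DTT and BGG. After 1 h at 22 °C in the dark plus overnight at 4 °C, anti-MBP Eu-cryptate/streptavidin-XL665 TR-FRET was read; IC50 came from a 4-parameter fit.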
(In general: Time-resolved FRET reads energy transfer from a long-lived donor to a nearby acceptor.)

The target in data set [2] is SUDHL5. Put plainly: Induction of caspase-3/7 activity (Caspase-Glo 3/7), SUDHL5. The format is cell-based. The note with it: caspase-3/7 induction, SUDHL5 cells, 3 h treatment; median. The method, boiled down: (§1)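 Caspase-Glo 3/7 luminescence measured after 3 h compound exposure at 37 °C in SUDHL10 and SUDHL5 cells. EC50 values come from background-corrected signals, with curve bottom set to 1 and plateau set to maximal induction by the reference compound.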

Data set [3] concerns the target SUDHL10. Nature of the data set: Induction of caspase-3/7 activity (Caspase-Glo 3/7), SUDHL10. The settings on record: caspase-3/7 induction, SUDHL10 cells, 3 h treatment; median. The format is cell-based. The procedure, abridged: as §1
Data set [4] has as its system SUDHL5. Put plainly: Anti-proliferative effect (CellTiter-Glo, 72 h), SUDHL5. The note with it: SUDHL5 cells, antiproliferation, median, read-out: Antiproli SUDHL5 [M] (median). It counts as cell-based. The procedure, abridged: (§2)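 Anti-proliferative activity is derived from ATP-based luminescence (CellTiter-Glo) in cells exposed to compound for 72 h at 37 °C, set against a time zero plate read at seeding.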
On the technique in general: In ATP-based viability assays light output follows the ATP content of the culture.

Data set [5] deals with SUDHL10. Put plainly: Anti-proliferative effect (CellTiter-Glo, 72 h), SUDHL10. The settings on record: SUDHL10 cells, antiproliferation, 72 h incubation, median, read-out: Antiproli SUDHL10 [M] (median). The format is cell-based. The method, boiled down:
as §2

The next data set relates to A2780. Nature of the data set: Anti-proliferative effect (CellTiter-Glo, 72 h), A2780. It counts as cell-based. The note with it: A2780 cells, median, read-out: IC50 antiproliferation assay A2780 [M] (median). The procedure, abridged:
as §2

The next data set concerns MV-4-11. Put plainly: Anti-proliferative effect (CellTiter-Glo, 72 h), MV-4-11. It counts as cell-based. The note with it: MV-4-11 cells, median, read-out: IC50 antiproliferation assay MV-4-11 [M] (median). The procedure, abridged:
as §2

Data set [6] relates to SUDHL5.
The test system of data set [7] is SUDHL10.
The next data set relates to OPM2. Nature of the data set: Anti-proliferative effect (CellTiter-Glo, 72 h), OPM2. It counts as cell-based. The note with it: OPM2 cells, median, read-out: IC50 antiproliferation assay OPM2 [M] (median). The method, boiled down: as §2

Where two headings read alike, the source gives them in different places.

MCL-1, sequence (Q07820 whole entry): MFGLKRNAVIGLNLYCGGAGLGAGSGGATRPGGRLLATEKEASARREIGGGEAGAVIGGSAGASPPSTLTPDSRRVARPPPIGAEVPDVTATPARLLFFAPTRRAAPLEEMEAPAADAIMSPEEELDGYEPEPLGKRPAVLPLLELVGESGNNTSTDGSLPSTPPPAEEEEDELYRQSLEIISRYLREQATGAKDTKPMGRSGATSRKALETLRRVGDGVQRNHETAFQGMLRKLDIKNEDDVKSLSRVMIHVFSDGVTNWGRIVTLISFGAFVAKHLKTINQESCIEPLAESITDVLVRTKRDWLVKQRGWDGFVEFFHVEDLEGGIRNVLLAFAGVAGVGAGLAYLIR

In [1] (the molecule shown is the open-chain precursor, crosslinker bond, (2Z)-1,4-dichlorobut-2-ene/NaH, DMF, 65.1 mM), `CCOC(=O)c1[nH]c2c(-c3c(CC)nn(C)c3CO)c(C)ccc2c1CCCO[Si](C)(C)C(C)(C)C` yielded a ring closure, isolated yield of 68.9%.
The compound `CCOC(=O)c1[nH]c2c(-c3c(CO)nn(C)c3CC)cccc2c1CCCO[Si](C)(C)C(C)(C)C` yielded a ring closure, isolated yield in data set [1] (the molecule shown is the open-chain precursor, crosslinker bond, (2Z)-1,4-dichlorobut-2-ene/NaH, DMF, 65.6 mM) of 75.3%.
In turn, `CCOC(=O)c1[nH]c2c(-c3c(CO)nn(CCN4CCOCC4)c3C)c(C)ccc2c1CCCO[Si](C)(C)C(C)(C)C` gave a ring closure, isolated yield in data set [1] (the molecule shown is the open-chain precursor, crosslinker bond, (2Z)-1,4-dichlorobut-2-ene/NaH, DMF, 65.7 mM) of 48.3%.
`CCc1c2c(nn1C)COCCCCn1c(C(=O)O)c(CCCOc3cccc4cc(F)ccc34)c3cccc-2c31` (racemic) [Example 281, (rac)-3-ethyl-7-{3-[(6-fluoronaphthalen-1-yl)oxy]propyl}-2-methyl-2,10,11,12,13,15-hexahydropyrazolo[4′,3′:9,10][1,6]oxazacycloundecino[8,7,6-hi]indole-8-carboxylic Acid]: the IC50 amounted to 0.00163 µM against MCL-1; 2.48e-06 M in the data set on SUDHL5 [4] (72 h incubation); 6.99e-06 M in the data set on SUDHL10 [5]; 1.39e-05 M in the data set on A2780; 4.74e-06 M in the data set on MV-4-11; 1.85 µM in the data set on SUDHL5 [6]. This compound showed an IC50 in the data set on SUDHL10 [7] of 2.58 µM. Further, the EC50 on SUDHL5 [2] worked out at 1.45 µM; on SUDHL10 [3], 2.78 µM.
Take `CCc1nn(C)c2c1-c1cccc3c(CCCOc4cccc5cc(C(F)(F)F)ccc45)c(C(=O)O)n(c13)CCCCOC2` (racemic) [Example 313, (rac)-12-ethyl-10-methyl-1-(3-((6-(trifluoromethyl)naphthalen-1-yl)oxy)propyl)-4,5,6,7,9,10-hexahydropyrazolo[4′,3′:9,10][1,6]oxaazacycloundecino[8,7,6-hi]indole-2-carboxylic Acid]: the IC50 on MCL-1 was determined as 0.0999 µM; in the data set with SUDHL5 [4] (72 h), 7.48e-06 M; in the data set on A2780, 1.05e-05 M; in the data set with MV-4-11, 2e-05 M; in the data set with SUDHL5 [6], 30.9 µM; with SUDHL10 [7], 27.1 µM. For the same compound, the EC50 on SUDHL5 [2] and on SUDHL10 [3] was over 33 µM throughout.
With `CN1CCCn2c(C(=O)O)c(CCCOc3cccc4ccccc34)c3cccc(c32)-c2c(CCN3CCOCC3)nn(C)c2C1` (single isomer, unassigned; enantiomer 1) [Example 125, 7,9-dimethyl-11-[2-(morpholin-4-yl)ethyl]-1-[3-(naphthalen-1-yloxy)propyl]-4,5,6,7,8,9-hexahydropyrazolo[3′,4′:7,8][1,5]diazecino[9,10,1-hi]indole-2-carboxylic Acid (Enantiomer 1)], the IC50 on MCL-1 was determined as 0.0108 µM; with SUDHL5 [4] (72 h incubation), 2.53e-06 M; in the data set with SUDHL10 [5], 7.66e-06 M; with OPM2, 1.15e-05 M; in the data set on A2780, 8.42e-06 M; in the data set on MV-4-11, 2.02e-06 M. Moreover, the IC50 in the data set with SUDHL5 [6] stood at 6.3 µM; with SUDHL10 [7], 13.9 µM. In addition, the EC50 came to 6.2 µM at SUDHL5 [2] and 14 µM at SUDHL10 [3].
Take `Cn1nc(CN2CCOCC2)c2c1COCCCCn1c(C(=O)O)c(CCCOc3cccc4ccccc34)c3cccc-2c31` (single isomer, unassigned; enantiomer 1) [Example 136, 1-methyl-3-(morpholin-4-ylmethyl)-7-[3-(naphthalen-1-yloxy)propyl]-1,10,11,12,13,15-hexahydropyrazolo[4′,3′:9,10][1,6]oxazacycloundecino[8,7,6-hi]indole-8-carboxylic Acid (Enantiomer 1)]: the IC50 against MCL-1 was 0.0228 µM; in the data set with SUDHL10 [5], 8.9e-06 M; in the data set on OPM2 it was over 3.3e-05 M; in the data set with A2780 it was over 3.3e-05 M; in the data set on SUDHL5 [6], over 33 µM; in the data set on SUDHL10 [7], over 33 µM. For the same compound, the EC50 at SUDHL5 [2] and on SUDHL10 [3] was over 33 µM each time.
As to `Cn1nc(CN2CCOCC2)c2c1COCCCn1c(C(=O)O)c(CCCOc3cccc4ccccc34)c3cccc-2c31` (single isomer, unassigned; enantiomer 1) [Example 139, 9-methyl-11-(morpholin-4-ylmethyl)-1-[3-(naphthalen-1-yloxy)propyl]-5,6,8,9-tetrahydro-4H-pyrazolo[4′,3′:8,9][1,5]oxazecino[7,6,5-hi]indole-2-carboxylic Acid (Enantiomer 1)], the IC50 is 0.0422 µM against MCL-1; 2.67e-05 M with SUDHL10 [5]; over 3.3e-05 M with OPM2; over 3.3e-05 M in the data set on A2780; over 33 µM with SUDHL5 [6]; over 33 µM in the data set on SUDHL10 [7]. Also, the EC50 at SUDHL5 [2] and on SUDHL10 [3] was over 33 µM each time.
Consider `CN1CCCn2c(C(=O)O)c(CCCOc3cccc4ccccc34)c3cccc(c32)-c2c(CCN3CCOCC3)nn(C)c2C1` (single isomer, unassigned; enantiomer 2) [Example 126, 7,9-dimethyl-11-[2-(morpholin-4-yl)ethyl]-1-[3-(naphthalen-1-yloxy)propyl]-4,5,6,7,8,9-hexahydropyrazolo[3′,4′:7,8][1,5]diazecino[9,10,1-hi]indole-2-carboxylic Acid (Enantiomer 2)], for which the IC50 against MCL-1 is 0.0845 µM; in the data set with SUDHL5 [4] (72 h incubation), 1.68e-05 M; in the data set with SUDHL10 [5], 1.51e-05 M; in the data set on OPM2, over 3.3e-05 M; in the data set with A2780, 3.19e-05 M; with SUDHL5 [6], 27.3 µM. Also, in the data set with SUDHL10 [7], the IC50 was over 33 µM. Besides, the values for the EC50 at SUDHL5 [2] and on SUDHL10 [3] were 27.9 µM and over 33 µM, respectively.
For `Cc1c2c(nn1CC(F)(F)F)COCCCCn1c(C(=O)O)c(CCCOc3cccc4ccccc34)c3cccc-2c31` [Example 242, 3-methyl-7-[3-(naphthalen-1-yloxy)propyl]-2-(2,2,2-trifluoroethyl)-2,10,11,12,13,15-hexahydropyrazolo[4′,3′:9,10][1,6]oxazacycloundecino[8,7,6-hi]indole-8-carboxylic Acid], the IC50 on MCL-1 was 0.258 µM; with SUDHL5 [4] (72 h incubation), 1.52e-06 M; in the data set with SUDHL10 [5] it was 2.74e-06 M; in the data set with A2780, 2.59e-06 M; with SUDHL5 [6], over 33 µM; with SUDHL10 [7], over 33 µM. In addition, the EC50 at SUDHL5 [2] and on SUDHL10 [3] was over 33 µM throughout.
In the case of “(rac)-(E/Z)-ethyl-1,3-dimethyl-7-[3-(naphthalen-1-yloxy)propyl]-1,10,13,15-tetrahydropyrazolo[4′,3′:9,10][1,6]oxazacycloundecino[8,7,6-hi]indole-8-carboxylate”, in data set [1] (rcm bond, Grubbs II (10 mol%), DCM, 77.0 mM), the ring closure, isolated yield worked out at 57%.
For “(rac)-(E/Z)-ethyl-2,3-dimethyl-7-[3-(naphthalen-1-yloxy)propyl]-2,10,13,15-tetrahydropyrazolo[4′,3′:9,10][1,6]oxazacycloundecino[8,7,6-hi]indole-8-carboxylate”, in [1] (rcm bond, Grubbs II (10 mol%), DCM, 77.8 mM), the ring closure, isolated yield turned out to be 15%.

What is called EC50 is the concentration needed to bring the measured effect to its halfway point. Read a low EC50 as a more potent agent.
